Data on 5 compounds can be found in publication PMC6478669, “Engineered Orthogonal Quorum Sensing Systems for Synthetic Gene Regulation in Escherichia coli” (Frontiers in Bioengineering and Biotechnology, 2019).

Assay in all cases: GFP reporter induction, plate reader
Format in all cases: cell-based

Assay [1] addresses T1, LuxR (Aliivibrio fischeri, UniProt P12746).
T1 construct: Receiver plasmid in E. coli BL21, regulator cassette upstream of pLux-GFP; same synthetic system as Canton et al. 2008; acts as dimer
T1 sequence (P12746 1-250): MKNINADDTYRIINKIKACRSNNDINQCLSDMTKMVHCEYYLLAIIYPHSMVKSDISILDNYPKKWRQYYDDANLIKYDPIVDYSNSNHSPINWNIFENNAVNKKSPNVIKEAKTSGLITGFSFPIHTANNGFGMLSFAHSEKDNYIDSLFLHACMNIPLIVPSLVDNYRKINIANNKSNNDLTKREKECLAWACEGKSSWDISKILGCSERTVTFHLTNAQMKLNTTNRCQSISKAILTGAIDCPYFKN
The settings on record: E. coli BL21 Receiver cells, LB, 37 °C, half-maximal max rate of GFP/OD600.

In a further assay the target is T2, AubR (uncultured bacterium, UniProt K0J3R4).
T2 construct: constitutively expressed from Receiver plasmid (pSB1A3) in E. coli BL21 with hybrid pAub promoter-GFP reporter; acts as dimer
T2 sequence (K0J3R4 1-267): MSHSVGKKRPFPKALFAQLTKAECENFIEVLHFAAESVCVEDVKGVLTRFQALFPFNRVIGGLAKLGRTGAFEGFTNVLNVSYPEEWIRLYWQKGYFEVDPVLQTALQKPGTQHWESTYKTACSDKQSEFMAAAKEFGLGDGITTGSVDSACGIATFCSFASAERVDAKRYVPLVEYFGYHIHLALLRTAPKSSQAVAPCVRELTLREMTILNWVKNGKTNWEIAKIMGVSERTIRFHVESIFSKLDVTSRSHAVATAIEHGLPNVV
The settings on record: read-out: Kmapprox.

A further assay has as its target T3, LasR (Pseudomonas aeruginosa, UniProt P25084).
T3 construct: constitutively expressed from Receiver plasmid (pSB1A3) in E. coli BL21 with hybrid pLas promoter-GFP reporter; acts as dimer
The settings on record: E. coli BL21 Receiver cells, LB, 37 °C, half-maximal max rate of GFP/OD600.

The target of assay [2] is T1, LuxR. The note with it: E. coli BL21 Receiver cells, LB, 37 °C, half-maximal max rate of GFP/OD600; unreliable (little to no response without oxo group).

T3 sequence (P25084 whole entry): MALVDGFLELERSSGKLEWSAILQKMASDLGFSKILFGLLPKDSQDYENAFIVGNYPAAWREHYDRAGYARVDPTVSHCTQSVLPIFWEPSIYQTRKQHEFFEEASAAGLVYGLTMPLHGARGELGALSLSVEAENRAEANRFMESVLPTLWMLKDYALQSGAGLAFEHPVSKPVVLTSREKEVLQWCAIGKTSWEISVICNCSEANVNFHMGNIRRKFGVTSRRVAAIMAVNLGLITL

For the compound `CCCCCC(=O)CC(=O)N[C@H]1CCOC1=O` [3-oxo-C8], the Kmapprox entry at LuxR [1] was “~ between 1.00E-7 and 1.00E-8 M”.

As to `CCCCCCCCCC(=O)CC(=O)N[C@H]1CCOC1=O` [3-oxo-C12 HSL], the EC50 at AubR is 100 nM.

For `CCCCCCCCCCCC(=O)CC(=O)N[C@H]1CCOC1=O` [3-oxo-C14 HSL], the Kmapprox result is “~ between 1.00E-9 and 1.00E-8 M” on LasR; “~ between 1.00E-8 and 1.00E-7 M” on LuxR [1].

Turning to `CCCC(=O)N[C@H]1CCOC1=O` [C4-HSL], the Kmapprox on LuxR [2] is ~ 1.0E-6–1.0E-5 M.

In the case of `CCCCCCCCCCCC(=O)N[C@H]1CCOC1=O` [C12 HSL], at AubR, the EC50 turned out to be 5 nM.
